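Growth conditions: 96-well plates. Treatment: test compound, 48 hours, 5 concentrations. Analysis: linear interpolation between bracketing concentrations; unreached endpoints set to highest concentration. GI50 marks 50% less growth.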 Active and inactive are the calls of the source. No stated cut-off is given here; in the data, active = GI50 up to about 1.1 µM and inactive = higher.
Assays:
Assay in all cases: NCI anticancer screen, dose series, 48 h
786-0 = system: 786-0
COLO 205 = system: COLO 205
DMS-273 = system: DMS-273
HT-29 = system: HT-29
IGROV-1 = system: IGROV-1
K562 = system: K562
M19-MEL = system: M19-MEL
OVCAR-4 = system: OVCAR-4
SF-268 = system: SF-268
SF-539 = system: SF-539
SK-MEL-28 = system: SK-MEL-28
SN12C = system: SN12C
SW-620 = system: SW-620
BT-549 = system: BT-549
HOP-92 = system: HOP-92
Hs-578T = system: Hs-578T
MDA-N = system: MDA-N
NCI/ADR-RES = system: NCI/ADR-RES
PC-3 = system: PC-3
SK-MEL-2 = system: SK-MEL-2

Row | SMILES | GI50 (786-0) | GI50 (COLO 205) | GI50 (DMS-273) | GI50 (HT-29) | GI50 (IGROV-1) | GI50 (K562) | GI50 (M19-MEL) | GI50 (OVCAR-4) | GI50 (SF-268) | GI50 (SF-539) | GI50 (SK-MEL-28) | GI50 (SN12C) | GI50 (SW-620) | GI50 (BT-549) | GI50 (HOP-92) | GI50 (Hs-578T) | GI50 (MDA-N) | GI50 (NCI/ADR-RES) | GI50 (PC-3) | GI50 (SK-MEL-2)
1 | CN(C)CCNC(=O)Cc1ccccc1Nc1c(Cl)cccc1Cl | 12.2 µM (inactive) | 16.4 µM (inactive) | 16.7 µM (inactive) | 10.3 µM (inactive) | 19.1 µM (inactive) | 15.3 µM (inactive) | 14.8 µM (inactive) | 20.1 µM (inactive) | 18.2 µM (inactive) | 16.5 µM (inactive) | 18.5 µM (inactive) | 15.1 µM (inactive) | 18.2 µM (inactive) | – | – | – | – | – | – | –
2 | O=C1SC(c2ccc(Cl)cc2)(c2ccc(Cl)cc2)c2ccccc21 | > 100 µM (inactive) | 83 µM (inactive) | – | 38.5 µM (inactive) | > 100 µM (inactive) | 44.5 µM (inactive) | – | 33.5 µM (inactive) | > 100 µM (inactive) | > 100 µM (inactive) | > 100 µM (inactive) | > 100 µM (inactive) | > 100 µM (inactive) | > 100 µM (inactive) | 81.5 µM (inactive) | 81.8 µM (inactive) | 62.4 µM (inactive) | > 100 µM (inactive) | 40.4 µM (inactive) | 22.6 µM (inactive)
3 | CC(Oc1ccc2cc(C(=O)c3ccccc3)c(=O)oc2c1)C(=O)O (centres undefined) | > 100 µM (inactive) | > 100 µM (inactive) | – | > 100 µM (inactive) | > 100 µM (inactive) | > 100 µM (inactive) | > 100 µM (inactive) | > 100 µM (inactive) | > 100 µM (inactive) | > 100 µM (inactive) | > 100 µM (inactive) | > 100 µM (inactive) | > 100 µM (inactive) | – | > 100 µM (inactive) | – | – | – | – | –
4 | CNC(=S)N/N=C(\C)c1cc(OC)ccc1O | > 100 µM (inactive) | 0.447 µM (active) | – | 0.951 µM (active) | > 64.9 µM (inactive) | 3.22 µM (inactive) | – | > 100 µM (inactive) | > 100 µM (inactive) | > 100 µM (inactive) | > 100 µM (inactive) | > 100 µM (inactive) | > 100 µM (inactive) | > 100 µM (inactive) | > 100 µM (inactive) | > 100 µM (inactive) | > 100 µM (inactive) | 28.6 µM (inactive) | > 96.4 µM (inactive) | > 100 µM (inactive)
5 | COc1ccc(-c2ncn(C[Si](C)(C)C)c2-c2ccc(OC)cc2)cc1 | 5.15 µM (inactive) | 2.54 µM (inactive) | – | 2.84 µM (inactive) | 6.21 µM (inactive) | 0.472 µM (active) | – | 7.82 µM (inactive) | 12.1 µM (inactive) | 10.5 µM (inactive) | 2.33 µM (inactive) | 11 µM (inactive) | 3.05 µM (inactive) | 22.4 µM (inactive) | 4.7 µM (inactive) | 12.5 µM (inactive) | 3.1 µM (inactive) | 5.08 µM (inactive) | 4.63 µM (inactive) | 7.08 µM (inactive)
6 | CC(C(=O)N1c2ccccc2Sc2ccccc21)N1c2ccccc2Sc2ccccc21 (centres undefined) | 88.1 µM (inactive) | 85.7 µM (inactive) | – | 72.3 µM (inactive) | 79.8 µM (inactive) | 84.1 µM (inactive) | – | > 100 µM (inactive) | > 100 µM (inactive) | > 100 µM (inactive) | > 100 µM (inactive) | > 100 µM (inactive) | > 100 µM (inactive) | > 100 µM (inactive) | 26.2 µM (inactive) | > 100 µM (inactive) | > 100 µM (inactive) | > 100 µM (inactive) | 97.5 µM (inactive) | > 100 µM (inactive)
7 | O=c1c(O)c(-c2ccccc2)n(O)c2ccc(Cl)cc12 | 28.7 µM (inactive) | 36.1 µM (inactive) | 20.3 µM (inactive) | 36.8 µM (inactive) | 29.6 µM (inactive) | 26.5 µM (inactive) | – | 36.3 µM (inactive) | 27.4 µM (inactive) | 20 µM (inactive) | 44 µM (inactive) | 20.8 µM (inactive) | 16.6 µM (inactive) | – | 34.6 µM (inactive) | – | – | – | – | 21.5 µM (inactive)
8 | O=C(N/N=C(COc1ccccc1Cl)\N=C\c1ccncc1)c1ccncc1 | > 100 µM (inactive) | > 100 µM (inactive) | – | > 100 µM (inactive) | > 100 µM (inactive) | > 100 µM (inactive) | – | > 100 µM (inactive) | > 100 µM (inactive) | > 100 µM (inactive) | > 100 µM (inactive) | > 100 µM (inactive) | > 100 µM (inactive) | > 100 µM (inactive) | > 100 µM (inactive) | > 100 µM (inactive) | > 100 µM (inactive) | > 100 µM (inactive) | > 100 µM (inactive) | > 100 µM (inactive)
9 | CCN1CCC(CNC(=O)c2ccc(N)cc2)N1CC (centres undefined) | > 100 µM (inactive) | > 100 µM (inactive) | – | > 100 µM (inactive) | > 100 µM (inactive) | > 100 µM (inactive) | – | > 100 µM (inactive) | > 100 µM (inactive) | > 100 µM (inactive) | > 100 µM (inactive) | > 100 µM (inactive) | > 100 µM (inactive) | > 100 µM (inactive) | > 100 µM (inactive) | > 100 µM (inactive) | > 100 µM (inactive) | > 100 µM (inactive) | > 100 µM (inactive) | > 100 µM (inactive)
10 | Cc1ccccc1NC(=O)C(=O)CC(=O)c1sc(Nc2ccccc2[N+](=O)[O-])nc1C | 21.5 µM (inactive) | 86.1 µM (inactive) | – | 26.7 µM (inactive) | 41.4 µM (inactive) | 49.2 µM (inactive) | – | 18.2 µM (inactive) | 38.5 µM (inactive) | 29.9 µM (inactive) | 25.7 µM (inactive) | 50.6 µM (inactive) | 36.1 µM (inactive) | 30.7 µM (inactive) | 29.3 µM (inactive) | 40.8 µM (inactive) | 35.7 µM (inactive) | 41.2 µM (inactive) | 28.1 µM (inactive) | 56.6 µM (inactive)
11 | O=C1NC(=S)NC(=O)C1=C/C=C/c1ccc([N+](=O)[O-])cc1 | 14.2 µM (inactive) | 13.2 µM (inactive) | – | 23.8 µM (inactive) | 12.2 µM (inactive) | 3.72 µM (inactive) | – | 19.8 µM (inactive) | 15.2 µM (inactive) | 13.8 µM (inactive) | 3.03 µM (inactive) | 15.8 µM (inactive) | 4.9 µM (inactive) | 10.6 µM (inactive) | 14.4 µM (inactive) | 10.7 µM (inactive) | 8.71 µM (inactive) | 13.1 µM (inactive) | 16.9 µM (inactive) | 16.4 µM (inactive)
12 | Cc1cc(SCC(=O)c2ccc(Br)cc2)cc(C)[o+]1 | 33.5 µM (inactive) | 31.9 µM (inactive) | – | 25.1 µM (inactive) | 37.4 µM (inactive) | 24.9 µM (inactive) | – | 24.9 µM (inactive) | 47.6 µM (inactive) | 23 µM (inactive) | 13.8 µM (inactive) | 39 µM (inactive) | 34 µM (inactive) | 39.7 µM (inactive) | 22.7 µM (inactive) | 47.6 µM (inactive) | 30.6 µM (inactive) | 29.8 µM (inactive) | 29.4 µM (inactive) | 30.8 µM (inactive)
13 | COCOC1/C=C/CCCC#C[C@H](C)C(=O)CC1 (some centres undefined) | 4.21 µM (inactive) | 5.45 µM (inactive) | – | 3.69 µM (inactive) | 9.27 µM (inactive) | 2.7 µM (inactive) | – | 7.83 µM (inactive) | 12.2 µM (inactive) | 16.2 µM (inactive) | 15.2 µM (inactive) | 11.2 µM (inactive) | 2.71 µM (inactive) | 12.6 µM (inactive) | 4.4 µM (inactive) | 15.5 µM (inactive) | 11.4 µM (inactive) | 11.8 µM (inactive) | 8.69 µM (inactive) | 15 µM (inactive)
14 | CCCCc1ccc(Nc2nc(Cl)c3ccn(C4CC(Oc5ccc(C)cc5)C(COc5ccc(C)cc5)O4)c3n2)cc1 (centres undefined) | > 46.5 µM (inactive) | > 46.5 µM (inactive) | – | > 46.5 µM (inactive) | 22.9 µM (inactive) | > 46.5 µM (inactive) | – | > 31.6 µM (inactive) | > 100 µM (inactive) | > 46.5 µM (inactive) | > 100 µM (inactive) | > 46.5 µM (inactive) | > 46.5 µM (inactive) | 12.6 µM (inactive) | > 46.5 µM (inactive) | > 100 µM (inactive) | > 46.5 µM (inactive) | > 46.5 µM (inactive) | > 100 µM (inactive) | > 46.5 µM (inactive)
15 | Cc1ccc(S(=O)(=O)N/N=C2/CCC(C(C)(C)C)CC2Br)cc1 (centres undefined) | 31.2 µM (inactive) | 27.2 µM (inactive) | – | 29.4 µM (inactive) | 38.6 µM (inactive) | 19.8 µM (inactive) | – | 19.5 µM (inactive) | 36.6 µM (inactive) | 21.2 µM (inactive) | 19.6 µM (inactive) | 17.3 µM (inactive) | 23.9 µM (inactive) | 32.1 µM (inactive) | 26.1 µM (inactive) | 17.2 µM (inactive) | 28.2 µM (inactive) | 17.6 µM (inactive) | 25.6 µM (inactive) | 13.7 µM (inactive)
16 | Cc1cc(NCc2ccccc2)c2ccccc2[n+]1CCCCCCCCCC[n+]1c(C)cc(NCc2ccccc2)c2ccccc21.[O-][Cl+3]([O-])([O-])[O-].[O-][Cl+3]([O-])([O-])[O-] | 0.653 µM (active) | 0.236 µM (active) | – | 0.345 µM (active) | 2.98 µM (inactive) | 0.271 µM (active) | – | 1.3 µM (inactive) | 0.478 µM (active) | 0.308 µM (active) | 0.71 µM (active) | 0.279 µM (active) | 0.752 µM (active) | 0.569 µM (active) | 0.649 µM (active) | 0.65 µM (active) | 0.374 µM (active) | 3.15 µM (inactive) | 0.458 µM (active) | 0.458 µM (active)

Reference: ChEMBL document CHEMBL1201862, “PubChem BioAssay data set” (2004)
